Data published in paper PMC10504751, “Chalcone/1,3,4-Oxadiazole/Benzimidazole hybrids as novel anti-proliferative agents inducing apoptosis and inhibiting EGFR & BRAFV^600E” (BMC Chemistry, 2023).
Read-outs that look alike come from different tables or passages of the source.

Experiments:
Assay in all cases: NCI one-dose SRB anti-proliferative screen
Format in all cases: cell-based
[1] = tested on: NCI-H322M; conditions: Homo sapiens, read-out: Cell growth inhibition %
In short: (§1)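 Each hybrid is applied once, at 10 µM, and anti-proliferative effect is quantified by SRB colorimetry.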

[2] = tested on: HL-60(TB); conditions: Homo sapiens, read-out: Cell growth inhibition %
In short: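 Activity reflects a single-point exposure at 10 µM, with cell mass determined by a sulforhodamine B dye assay.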

[3] = tested on: SR; conditions: Homo sapiens, read-out: Cell growth inhibition %
In short: as §1

[4] = tested on: OVCAR-3; conditions: Homo sapiens, read-out: Cell growth inhibition %
In short: as §1

[5] = tested on: OVCAR-4; conditions: Homo sapiens, read-out: Cell growth inhibition %
In short: as §1

[6] = tested on: SF-295; conditions: Homo sapiens, read-out: Cell growth inhibition %
In short: as §1

[7] = tested on: ACHN; conditions: Homo sapiens, read-out: Cell growth inhibition %
In short: as §1

[8] = tested on: HOP-92; conditions: Homo sapiens, read-out: Cell growth inhibition %
In short: as §1

[9] = tested on: NCI-H23; conditions: Homo sapiens, read-out: Cell growth inhibition %
In short: as §1

[10] = tested on: SK-MEL-5; conditions: Homo sapiens, read-out: Cell growth inhibition %
In short: as §1

[11] = tested on: KM12; conditions: Homo sapiens, read-out: Cell growth inhibition %
In short: as §1

[12] = tested on: TK-10; conditions: Homo sapiens, read-out: Cell growth inhibition %
In short: as §1

[13] = tested on: MDA-MB-468; conditions: Homo sapiens, read-out: Cell growth inhibition %
In short: as §1

[14] = tested on: U251; conditions: Homo sapiens, U-251, read-out: Cell growth inhibition %
In short: as §1

[15] = tested on: SF-539; conditions: Homo sapiens, read-out: Cell growth inhibition %
In short: as §1

[16] = tested on: CAKI-1; conditions: Homo sapiens, read-out: Cell growth inhibition %
In short: as §1

[17] = tested on: LOX IMVI; conditions: Homo sapiens, read-out: Cell growth inhibition %
In short: as §1

[18] = tested on: A498; conditions: Homo sapiens, read-out: Cell growth inhibition %
In short: as §1

[19] = tested on: SF-268; conditions: Homo sapiens, read-out: Cell growth inhibition %
In short: as §1

[20] = tested on: 786-0; conditions: Homo sapiens, read-out: Cell growth inhibition %
In short: as §1

[21] = tested on: MDA-MB-231/ATCC; conditions: Homo sapiens, read-out: Cell growth inhibition %
In short: as §1

[22] = tested on: SW-620; conditions: Homo sapiens, read-out: Cell growth inhibition %
In short: as §1

[23] = tested on: NCI-H226; conditions: Homo sapiens, read-out: Cell growth inhibition %
In short: as §1

[24] = tested on: NCI/ADR-RES; conditions: Homo sapiens, read-out: Cell growth inhibition %
In short: as §1

[25] = tested on: SNB-19; conditions: Homo sapiens, read-out: Cell growth inhibition %
In short: as §1

[26] = tested on: HCC-2998; conditions: Homo sapiens, read-out: Cell growth inhibition %
In short: as §1

[27] = tested on: DU-145; conditions: Homo sapiens, read-out: Cell growth inhibition %
In short: as §1

[28] = tested on: HT29; conditions: Homo sapiens, HT-29, read-out: Cell growth inhibition %
In short: as §1

[29] = tested on: NCI-H460; conditions: Homo sapiens, read-out: Cell growth inhibition %
In short: as §1

[30] = NCI-H322M (Non-Small Cell Lung Cancer), NCI one dose 10 µM
[31] = HL-60(TB) (Leukemia), NCI one dose 10 µM
[32] = SR (Leukemia), NCI one dose 10 µM
[33] = OVCAR-3 (Ovarian Cancer), NCI one dose 10 µM
[34] = OVCAR-4 (Ovarian Cancer), NCI one dose 10 µM
[35] = SF-295 (CNS Cancer), NCI one dose 10 µM
[36] = ACHN (Renal Cancer), NCI one dose 10 µM
[37] = HOP-92 (Non-Small Cell Lung Cancer), NCI one dose 10 µM
[38] = NCI-H23 (Non-Small Cell Lung Cancer), NCI one dose 10 µM
[39] = SK-MEL-5 (Melanoma), NCI one dose 10 µM
[40] = KM12 (Colon Cancer), NCI one dose 10 µM
[41] = TK-10 (Renal Cancer), NCI one dose 10 µM
[42] = MDA-MB-468 (Breast Cancer), NCI one dose 10 µM
[43] = U251 (CNS Cancer), NCI one dose 10 µM
[44] = SF-539 (CNS Cancer), NCI one dose 10 µM
[45] = CAKI-1 (Renal Cancer), NCI one dose 10 µM
[46] = LOX IMIV (Melanoma), NCI one dose 10 µM
[47] = A498 (Renal Cancer), NCI one dose 10 µM
[48] = SF-268 (CNS Cancer), NCI one dose 10 µM
[49] = 786-0 (Renal Cancer), NCI one dose 10 µM
[50] = MDA-MB-231/ATCC (Breast Cancer), NCI one dose 10 µM
[51] = SW-620 (Colon Cancer), NCI one dose 10 µM
[52] = NCI-H226 (Non-Small Cell Lung Cancer), NCI one dose 10 µM
[53] = NCI/ADR-RES (Ovarian Cancer), NCI one dose 10 µM
[54] = SNB-19 (CNS Cancer), NCI one dose 10 µM
[55] = HCC-2998 (Colon Cancer), NCI one dose 10 µM
[56] = DU-145 (Prostate Cancer), NCI one dose 10 µM
[57] = HT29 (Colon Cancer), NCI one dose 10 µM
[58] = NCI-H460 (Non-Small Cell Lung Cancer), NCI one dose 10 µM

COc1ccc(/C=C/C(=O)c2ccc(NC(=O)CSc3nnc(-c4ccc5[nH]c(-c6ccc(OC)c(OC)c6)nc5c4)o3)cc2)cc1 [Compound 7r, 2-{5-[2-(3,4-Dimethoxyphenyl)-1 H-benzo[d]imidazol-5-yl]-1,3,4-oxadiazol-2-ylthio}-N-{4-[(E)-3-(4-methoxyphenyl)acryloyl]phenyl}acetamide]
inhibition at 10 µM [1, 30]: 1.05% | inhibition at 10 µM [2, 31]: 20.9% | inhibition at 10 µM [3, 32]: 30.6% | inhibition at 10 µM [4, 33]: 0% | inhibition at 10 µM [5, 34]: 0% | inhibition at 10 µM [6, 35]: 3.2% | inhibition at 10 µM [7, 36]: 2.15% | inhibition at 10 µM [8, 37]: 5.88% | inhibition at 10 µM [9, 38]: 5.15% | inhibition at 10 µM [10, 39]: 10.8% | inhibition at 10 µM [11, 40]: 0% | inhibition at 10 µM [12, 41]: 0% | inhibition at 10 µM [13, 42]: 0% | inhibition at 10 µM [14, 43]: 0% | inhibition at 10 µM [15, 44]: 7.36% | inhibition at 10 µM [16, 45]: 0.08% | inhibition at 10 µM [17, 46]: 20.2% | inhibition at 10 µM [18, 47]: 0% | inhibition at 10 µM [19, 48]: 0% | inhibition at 10 µM [20, 49]: 0% | inhibition at 10 µM [21, 50]: 4.13% | inhibition at 10 µM [22, 51]: 0% | inhibition at 10 µM [23, 52]: 2.08% | inhibition at 10 µM [24, 53]: 0% | inhibition at 10 µM [25, 54]: 0% | inhibition at 10 µM [26, 55]: 0% | inhibition at 10 µM [27, 56]: 0% | inhibition at 10 µM [28, 57]: 0% | inhibition at 10 µM [29, 58]: 0%

COc1cc(-c2nc3cc(-c4nnc(SCC(=O)Nc5ccc(C(=O)/C=C/c6ccc(Cl)cc6)cc5)o4)ccc3[nH]2)cc(OC)c1OC [Compound 7v, 2-{5-[2-(3,4,5-Trimethoxyphenyl)-1 H-benzo[d]imidazol-5-yl]-1,3,4-oxadiazol-2-ylthio}-N-{4-[(E)-3-(4-chlorophenyl)acryloyl]phenyl}acetamide]
inhibition at 10 µM [1, 30]: 3.77% | inhibition at 10 µM [2, 31]: 7.46% | inhibition at 10 µM [3, 32]: 39.6% | inhibition at 10 µM [4, 33]: 2.13% | inhibition at 10 µM [5, 34]: 0% | inhibition at 10 µM [6, 35]: 2.25% | inhibition at 10 µM [7, 36]: 3.22% | inhibition at 10 µM [8, 37]: 17.8% | inhibition at 10 µM [9, 38]: 0% | inhibition at 10 µM [10, 39]: 8.57% | inhibition at 10 µM [11, 40]: 9.06% | inhibition at 10 µM [12, 41]: 0% | inhibition at 10 µM [13, 42]: 6.96% | inhibition at 10 µM [14, 43]: 22.4% | inhibition at 10 µM [15, 44]: 25.3% | inhibition at 10 µM [16, 45]: 2.81% | inhibition at 10 µM [17, 46]: 132% | inhibition at 10 µM [18, 47]: 16.8% | inhibition at 10 µM [19, 48]: 0.81% | inhibition at 10 µM [20, 49]: 9.2% | inhibition at 10 µM [21, 50]: 8.4% | inhibition at 10 µM [22, 51]: 0% | inhibition at 10 µM [23, 52]: 8.31% | inhibition at 10 µM [24, 53]: 0% | inhibition at 10 µM [25, 54]: 6.59% | inhibition at 10 µM [26, 55]: 0% | inhibition at 10 µM [27, 56]: 0% | inhibition at 10 µM [28, 57]: 0% | inhibition at 10 µM [29, 58]: 0%

COc1ccc(/C=C/C(=O)c2ccc(NC(=O)CSc3nnc(-c4ccc5[nH]c(-c6ccccc6)nc5c4)o3)cc2)cc1 [Compound 7c, 2-{5-[2-Phenyl-1 H-benzo[d]imidazol-5-yl]-1,3,4-oxadiazol-2-ylthio}-N-{4-[(E)-3-(4-methoxyphenyl)acryloyl]phenyl}acetamide]
inhibition at 10 µM ([1]; NCI-H322M, Non-Small Cell Lung Cancer, NCI one dose): 0% | inhibition at 10 µM ([2]; HL-60(TB), Leukemia, NCI one dose): 5.24% | inhibition at 10 µM ([3]; SR, Leukemia, NCI one dose): 12.7% | inhibition at 10 µM ([4]; OVCAR-3, Ovarian Cancer, NCI one dose): 0% | inhibition at 10 µM ([5]; OVCAR-4, Ovarian Cancer, NCI one dose): 0% | inhibition at 10 µM ([6]; SF-295, CNS Cancer, NCI one dose): 1.65% | inhibition at 10 µM ([7]; ACHN, Renal cancer, NCI one dose): 2.58% | inhibition at 10 µM ([8]; HOP-92, Non-Small Cell Lung Cancer, NCI one dose): 0% | inhibition at 10 µM ([9]; NCI-H23, Non-Small Cell Lung Cancer, NCI one dose): 7.79% | inhibition at 10 µM ([10]; SK-MEL-5, Melanoma, NCI one dose): 16.8% | inhibition at 10 µM ([11]; KM12, Colon cancer, NCI one dose): 1.55% | inhibition at 10 µM ([12]; TK-10, Renal cancer, NCI one dose): 0% | inhibition at 10 µM ([13]; MDA-MB-468, Breast cancer, NCI one dose): 0% | inhibition at 10 µM ([14]; U251, CNS Cancer, NCI one dose): 17.2% | inhibition at 10 µM ([15]; SF-539, CNS Cancer, NCI one dose): 8.76% | inhibition at 10 µM ([16]; CAKI-1, Renal cancer, NCI one dose): 0% | inhibition at 10 µM ([17]; Melanoma, NCI one dose): 6.46% | inhibition at 10 µM ([18]; A498, Renal cancer, NCI one dose): 22.6% | inhibition at 10 µM ([19]; SF-268, CNS Cancer, NCI one dose): 0% | inhibition at 10 µM ([20]; 786-0, Renal cancer, NCI one dose): 22.6% | inhibition at 10 µM ([21]; MDA-MB-231/ATCC, Breast cancer, NCI one dose): 0% | inhibition at 10 µM ([22]; SW-620, Colon cancer, NCI one dose): 0% | inhibition at 10 µM ([23]; NCI-H226, Non-Small Cell Lung Cancer, NCI one dose): 2.2% | inhibition at 10 µM ([24]; NCI/ADR-RES, Ovarian Cancer, NCI one dose): 0% | inhibition at 10 µM ([25]; SNB-19, CNS Cancer, NCI one dose): 7.28% | inhibition at 10 µM ([26]; HCC-2998, Colon cancer, NCI one dose): 0% | inhibition at 10 µM ([27]; DU-145, Prostate Cancer, NCI one dose): 0% | inhibition at 10 µM ([28]; HT29, Colon cancer, NCI one dose): 1.01% | inhibition at 10 µM ([29]; NCI-H460, Non-Small Cell Lung Cancer, NCI one dose): 0%
